The experiment concerns the target Golgi-associated PDZ and coiled-coil motif-containing protein (Homo sapiens) (UniProt Q9HD26). Put plainly: blockers of CAL PDZ–TMR peptide complex – biochemical, fluorescence polarization, untagged CAL PDZ, cherry-pick, set 2, dose response (AID 602254).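 Also: potency of inhibitors that displace the labelled peptide.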 The note with it: Purified CAL PDZ.

Active and inactive are the calls of the source.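 The calls were made as follows: active = fitted half-maximal concentration no higher than twice the top valid tested dose, with signal falling; inconclusive = flat curve with 30 to 70% inhibition, or poor fit; inactive = the rest.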

By AC50 is commonly meant the concentration giving half of the maximal activity seen. Take `OCCC1CN(Cc2ccc3nsnc3c2)CCN1C1CCCCC1` (centres undefined): the AC50 was > 120 µM (inactive).

In the case of `Cc1cc(NC(=O)c2ccc(C#N)cc2)n(-c2ccccn2)n1`, the AC50 is > 120 µM (inactive).

With `CN(Cc1ccc(Cl)s1)C(=O)CNC(=O)CNC(=O)c1ccc(Cl)cc1Cl`, the AC50 was > 120 µM (inactive).

Take `Cc1ccc(C)c(NC(=O)CN(C)C(=O)c2ccc3c(=O)n4c(nc3c2)CCC4)c1`: the AC50 is > 120 µM (inactive).

With `COc1ccc(CC2CCOC2=O)cc1` (centres undefined), the AC50 is > 120 µM (inactive).

Turning to `CCN(CC)c1ccc(N2C(=O)CSC2=S)cc1`, the AC50 is > 120 µM (inactive).

As to `CCN(CC)CCn1c(=S)[nH]c2ccc(Br)cc2c1=O`, the AC50 is > 120 µM (inactive).

With `CC(=O)N1CCc2cc(S(=O)(=O)NC(C(=O)NCc3ccccc3)C(C)C)ccc21` (centres undefined), the AC50 is > 120 µM (inactive).

`Cc1c(NS(=O)(=O)c2ccc(S(=O)(=O)c3ccccc3)s2)c(=O)n(-c2ccccc2)n1C`: the AC50 was > 120 µM (inactive).

`Cc1cc(NC(=O)c2c(Br)c(C)nn2C)no1`: the AC50 is > 120 µM (inactive).

As for `Cc1cccc(OCC(=O)OCC(=O)Nc2ccc(Cl)cn2)c1`, the AC50 was > 120 µM (inactive).

Take `Cc1ccc2nc(COC(=O)c3ccc(Cl)nc3)cc(=O)n2c1`: the AC50 is > 120 µM (inactive).

Consider `CN(C)S(=O)(=O)c1cccc(COc2ncnc3c(Cl)cc(Cl)cc23)c1`, for which the AC50 is > 120 µM (inactive).

For the compound `Cc1cc(F)ccc1NC(=O)c1cc(S(=O)(=O)N2CCCC2)cn1C`, the AC50 is > 120 µM (inactive).

The record behind these values is PubChem BioAssay AID602254 (Broad Institute, 2012).
